Measured values published in BindingDB's records for doi:10.1016/0006-2952(86)90769-0 (Wyeth Laboratories, 1986).

What was measured:
[1] = target: T1, Alpha-2C adrenergic receptor (Rattus norvegicus, UniProt P22086)
T1 sequence (P22086 whole entry): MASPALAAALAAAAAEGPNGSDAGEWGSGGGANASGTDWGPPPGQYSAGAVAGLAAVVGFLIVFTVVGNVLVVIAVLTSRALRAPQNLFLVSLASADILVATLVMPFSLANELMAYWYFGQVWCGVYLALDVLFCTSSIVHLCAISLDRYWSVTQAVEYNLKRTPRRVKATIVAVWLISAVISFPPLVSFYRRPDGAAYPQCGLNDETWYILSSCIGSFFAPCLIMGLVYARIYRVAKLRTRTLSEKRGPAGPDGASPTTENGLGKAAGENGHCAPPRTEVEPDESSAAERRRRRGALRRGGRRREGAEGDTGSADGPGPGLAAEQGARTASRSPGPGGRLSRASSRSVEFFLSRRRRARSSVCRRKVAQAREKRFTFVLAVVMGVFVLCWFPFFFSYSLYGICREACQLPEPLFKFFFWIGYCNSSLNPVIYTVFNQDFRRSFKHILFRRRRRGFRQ

[2] = target: T2, Muscarinic acetylcholine receptor M2 (Rattus norvegicus, UniProt P10980)
T2 sequence (P10980 whole entry): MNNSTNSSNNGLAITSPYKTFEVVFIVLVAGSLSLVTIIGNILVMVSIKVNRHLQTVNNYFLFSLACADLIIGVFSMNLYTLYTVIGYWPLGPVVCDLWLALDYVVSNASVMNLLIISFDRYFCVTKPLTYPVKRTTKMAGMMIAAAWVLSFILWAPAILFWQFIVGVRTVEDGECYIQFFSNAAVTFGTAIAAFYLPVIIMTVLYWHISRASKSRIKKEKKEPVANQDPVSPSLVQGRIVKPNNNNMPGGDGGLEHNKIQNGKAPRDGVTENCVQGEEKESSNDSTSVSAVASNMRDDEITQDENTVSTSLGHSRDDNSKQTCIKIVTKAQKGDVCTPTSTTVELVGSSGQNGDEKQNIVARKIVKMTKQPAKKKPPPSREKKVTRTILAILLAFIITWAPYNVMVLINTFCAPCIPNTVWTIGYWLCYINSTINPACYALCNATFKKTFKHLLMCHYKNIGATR

Histamine H1 receptor = Histamine H1 receptor (Rattus norvegicus, UniProt P31390)
Chain of Histamine H1 receptor (P31390 whole entry): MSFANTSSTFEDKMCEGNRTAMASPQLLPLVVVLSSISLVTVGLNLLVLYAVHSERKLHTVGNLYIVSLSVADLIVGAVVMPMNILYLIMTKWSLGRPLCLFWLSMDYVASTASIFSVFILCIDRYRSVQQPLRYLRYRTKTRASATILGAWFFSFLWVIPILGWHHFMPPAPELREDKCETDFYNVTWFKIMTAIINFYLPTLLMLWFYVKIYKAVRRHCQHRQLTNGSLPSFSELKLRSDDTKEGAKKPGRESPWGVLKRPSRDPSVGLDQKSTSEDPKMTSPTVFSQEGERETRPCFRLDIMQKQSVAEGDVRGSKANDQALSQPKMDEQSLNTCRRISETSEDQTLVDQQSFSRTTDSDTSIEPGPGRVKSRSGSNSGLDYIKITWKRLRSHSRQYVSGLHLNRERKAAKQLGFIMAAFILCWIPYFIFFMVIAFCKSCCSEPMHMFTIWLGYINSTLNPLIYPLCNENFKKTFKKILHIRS

SMILES	Ki [1]	Ki [2]	Ki (Histamine H1 receptor)
CNCCCN1c2ccccc2CCc2ccccc21 [Desmethylimipramine]	> 10 µM	0.05 µM	
COc1ccc(C(CN(C)C)C2(O)CCCCC2)cc1 (stereo not given) [NSC_62923]	> 10 µM	> 10 µM	> 10 µM
